Test results: patent US9260417B2, “Therapeutic methods and compositions involving allosteric kinase inhibition” (AMITECH THERAPEUTIC SOLUTIONS, INC., priority 2010, dated 2016)

Key:
ARK5 = ARK5 (Homo sapiens (Human), UniProt O60285); assay: KINOMEscan competitive binding assay; settings: 10 uM
From the text: (§1) In vitro kinase screen and competitive binding assay. Sorafenib as well as test compounds were submitted to Invitrogen and screened using their SelectScreen™ Profiling Service.

AXL = AXL (Homo sapiens (Human), UniProt P30530); assay: KINOMEscan competitive binding assay; settings: 10 uM
AXL, sequence (P30530 26-894): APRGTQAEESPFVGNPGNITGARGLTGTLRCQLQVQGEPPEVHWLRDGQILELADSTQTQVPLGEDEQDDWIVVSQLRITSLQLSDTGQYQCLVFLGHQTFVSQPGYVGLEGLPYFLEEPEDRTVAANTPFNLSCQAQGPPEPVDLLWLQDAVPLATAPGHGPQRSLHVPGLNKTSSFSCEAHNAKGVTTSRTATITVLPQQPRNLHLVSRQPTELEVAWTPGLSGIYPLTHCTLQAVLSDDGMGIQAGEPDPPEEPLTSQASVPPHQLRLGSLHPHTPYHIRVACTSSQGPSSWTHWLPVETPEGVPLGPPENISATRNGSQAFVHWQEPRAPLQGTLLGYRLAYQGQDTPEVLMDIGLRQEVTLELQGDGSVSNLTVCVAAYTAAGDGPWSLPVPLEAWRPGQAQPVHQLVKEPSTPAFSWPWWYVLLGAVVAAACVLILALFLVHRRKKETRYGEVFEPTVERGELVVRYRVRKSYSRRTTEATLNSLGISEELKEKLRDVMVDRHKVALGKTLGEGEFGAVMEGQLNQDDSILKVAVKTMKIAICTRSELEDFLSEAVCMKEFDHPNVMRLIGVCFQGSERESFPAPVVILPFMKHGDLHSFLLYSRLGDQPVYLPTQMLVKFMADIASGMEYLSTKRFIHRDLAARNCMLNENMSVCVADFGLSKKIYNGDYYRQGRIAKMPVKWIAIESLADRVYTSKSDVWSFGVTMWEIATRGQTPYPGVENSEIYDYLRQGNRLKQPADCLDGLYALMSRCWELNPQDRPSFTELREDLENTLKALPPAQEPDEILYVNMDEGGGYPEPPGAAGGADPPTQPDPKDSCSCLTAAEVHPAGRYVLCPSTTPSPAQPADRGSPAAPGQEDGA
From the text: as §1

BMX = BMX (Homo sapiens (Human), UniProt P51813); assay: KINOMEscan competitive binding assay; settings: 10 uM
From the text: as §1

CDK2 = CDK2 (Homo sapiens (Human), UniProt P24941); assay: KINOMEscan competitive binding assay; settings: 10 uM
From the text: as §1

CDK3 = CDK3 (Homo sapiens (Human), UniProt Q00526); assay: KINOMEscan competitive binding assay; settings: 10 uM
CDK3, sequence (Q00526 whole entry): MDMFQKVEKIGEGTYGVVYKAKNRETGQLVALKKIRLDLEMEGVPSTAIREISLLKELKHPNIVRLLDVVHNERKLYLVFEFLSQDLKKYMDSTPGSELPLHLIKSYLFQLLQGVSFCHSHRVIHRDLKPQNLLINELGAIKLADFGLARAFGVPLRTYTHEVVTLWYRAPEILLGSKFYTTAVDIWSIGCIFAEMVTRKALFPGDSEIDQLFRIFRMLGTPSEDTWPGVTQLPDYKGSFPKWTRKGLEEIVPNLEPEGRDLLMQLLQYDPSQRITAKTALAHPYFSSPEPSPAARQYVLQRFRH
From the text: as §1

CDK9 = CDK9 (Homo sapiens (Human), UniProt P50750); assay: KINOMEscan competitive binding assay; settings: 10 uM
From the text: as §1

FLT4 = FLT4 (Homo sapiens (Human), UniProt P35916); assay: KINOMEscan competitive binding assay; settings: 10 uM
From the text: as §1

GSK3B = GSK3B (Homo sapiens (Human), UniProt P49841); assay: KINOMEscan competitive binding assay; settings: 10 uM
From the text: as §1

IGF1R = IGF1R (Homo sapiens (Human), UniProt P08069); assay: KINOMEscan competitive binding assay; settings: 10 uM
From the text: as §1

JNK1 = JNK1 (Homo sapiens (Human), UniProt P45983); assay: KINOMEscan competitive binding assay; settings: 10 uM
From the text: as §1

KIT(V559D, T670I) = KIT(V559D, T670I) (Homo sapiens (Human), UniProt P10721, T670I/V559D); assay: KINOMEscan competitive binding assay; settings: 10 uM
From the text: as §1

KIT(V559D, V654A) = KIT(V559D, V654A) (Homo sapiens (Human), UniProt P10721, V559D/V654A); assay: KINOMEscan competitive binding assay; settings: 10 uM
KIT(V559D, V654A), sequence (P10721 26-976 V559D/V654A): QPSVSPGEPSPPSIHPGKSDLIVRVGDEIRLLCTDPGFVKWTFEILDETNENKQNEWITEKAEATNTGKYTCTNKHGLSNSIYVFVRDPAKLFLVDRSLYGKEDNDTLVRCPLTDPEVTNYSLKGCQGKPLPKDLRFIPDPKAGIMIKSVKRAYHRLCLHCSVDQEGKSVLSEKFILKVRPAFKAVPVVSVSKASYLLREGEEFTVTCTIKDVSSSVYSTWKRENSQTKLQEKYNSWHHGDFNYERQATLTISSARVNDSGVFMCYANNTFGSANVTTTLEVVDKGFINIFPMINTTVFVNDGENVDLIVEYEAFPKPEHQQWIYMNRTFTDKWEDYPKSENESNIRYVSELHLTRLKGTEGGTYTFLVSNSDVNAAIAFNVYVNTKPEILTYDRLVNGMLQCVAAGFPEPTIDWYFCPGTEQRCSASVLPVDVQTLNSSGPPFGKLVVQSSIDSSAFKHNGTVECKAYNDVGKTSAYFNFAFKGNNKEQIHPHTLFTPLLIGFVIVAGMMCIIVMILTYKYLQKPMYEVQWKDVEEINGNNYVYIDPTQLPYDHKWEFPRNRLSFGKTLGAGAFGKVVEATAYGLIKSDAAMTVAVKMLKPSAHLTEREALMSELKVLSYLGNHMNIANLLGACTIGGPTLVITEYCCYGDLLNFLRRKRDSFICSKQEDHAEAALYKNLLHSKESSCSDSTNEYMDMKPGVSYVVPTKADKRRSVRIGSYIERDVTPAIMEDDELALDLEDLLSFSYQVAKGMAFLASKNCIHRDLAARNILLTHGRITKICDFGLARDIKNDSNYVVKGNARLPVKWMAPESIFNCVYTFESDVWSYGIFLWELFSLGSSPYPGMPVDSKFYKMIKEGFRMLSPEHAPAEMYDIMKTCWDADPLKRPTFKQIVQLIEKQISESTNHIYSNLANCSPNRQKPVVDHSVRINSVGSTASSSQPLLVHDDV
From the text: as §1

LKB1 = LKB1 (Homo sapiens (Human), UniProt Q15831); assay: KINOMEscan competitive binding assay; settings: 10 uM
LKB1, sequence (Q15831 whole entry): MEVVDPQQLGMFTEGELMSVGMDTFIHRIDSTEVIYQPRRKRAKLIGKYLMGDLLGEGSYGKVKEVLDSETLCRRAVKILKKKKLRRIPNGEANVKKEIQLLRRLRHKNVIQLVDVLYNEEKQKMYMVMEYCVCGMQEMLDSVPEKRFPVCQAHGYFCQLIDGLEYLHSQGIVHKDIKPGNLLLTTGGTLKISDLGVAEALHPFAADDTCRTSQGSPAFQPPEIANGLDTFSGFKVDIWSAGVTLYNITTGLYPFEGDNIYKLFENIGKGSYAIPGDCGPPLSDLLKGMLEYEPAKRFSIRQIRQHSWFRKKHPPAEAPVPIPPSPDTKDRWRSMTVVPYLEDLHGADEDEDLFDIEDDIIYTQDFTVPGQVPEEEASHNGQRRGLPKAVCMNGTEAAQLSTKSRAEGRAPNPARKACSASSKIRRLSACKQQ
From the text: as §1

PIK3CA = PIK3CA (Homo sapiens (Human), UniProt P42336); assay: KINOMEscan competitive binding assay; settings: 10 uM
From the text: as §1

RIOK3 = RIOK3 (Homo sapiens (Human), UniProt O14730); assay: KINOMEscan competitive binding assay; settings: 10 uM
From the text: as §1

TIE1 = TIE1 (Homo sapiens (Human), UniProt P35590); assay: KINOMEscan competitive binding assay; settings: 10 uM
From the text: as §1

CDC2L1 = CDC2L1 (Homo sapiens (Human), UniProt P21127); assay: KINOMEscan competitive binding assay; settings: 10 uM
CDC2L1, sequence (P21127 whole entry): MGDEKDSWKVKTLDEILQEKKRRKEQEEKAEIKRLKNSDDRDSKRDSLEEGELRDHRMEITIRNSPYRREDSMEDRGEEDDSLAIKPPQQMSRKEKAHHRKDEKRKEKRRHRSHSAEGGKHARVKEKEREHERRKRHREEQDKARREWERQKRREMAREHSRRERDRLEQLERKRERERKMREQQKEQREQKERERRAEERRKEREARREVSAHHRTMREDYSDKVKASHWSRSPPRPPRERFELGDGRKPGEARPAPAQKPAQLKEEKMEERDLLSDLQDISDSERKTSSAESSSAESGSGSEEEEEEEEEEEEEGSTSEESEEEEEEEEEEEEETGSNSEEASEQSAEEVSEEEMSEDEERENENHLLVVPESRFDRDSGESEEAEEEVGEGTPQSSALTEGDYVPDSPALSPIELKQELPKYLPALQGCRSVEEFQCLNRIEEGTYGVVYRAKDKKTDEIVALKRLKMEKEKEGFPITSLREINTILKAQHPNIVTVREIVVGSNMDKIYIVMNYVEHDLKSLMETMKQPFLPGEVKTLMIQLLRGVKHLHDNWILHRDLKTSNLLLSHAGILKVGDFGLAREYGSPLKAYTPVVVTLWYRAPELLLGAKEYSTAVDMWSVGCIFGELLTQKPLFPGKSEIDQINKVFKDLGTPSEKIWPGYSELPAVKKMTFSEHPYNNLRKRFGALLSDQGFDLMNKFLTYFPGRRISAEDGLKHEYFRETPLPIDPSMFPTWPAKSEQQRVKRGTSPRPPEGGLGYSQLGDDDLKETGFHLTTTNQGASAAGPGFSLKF

CDC2L2 = CDC2L2 (Homo sapiens (Human), UniProt Q9UQ88); assay: KINOMEscan competitive binding assay; settings: 10 uM
CDC2L2, sequence (Q9UQ88 whole entry): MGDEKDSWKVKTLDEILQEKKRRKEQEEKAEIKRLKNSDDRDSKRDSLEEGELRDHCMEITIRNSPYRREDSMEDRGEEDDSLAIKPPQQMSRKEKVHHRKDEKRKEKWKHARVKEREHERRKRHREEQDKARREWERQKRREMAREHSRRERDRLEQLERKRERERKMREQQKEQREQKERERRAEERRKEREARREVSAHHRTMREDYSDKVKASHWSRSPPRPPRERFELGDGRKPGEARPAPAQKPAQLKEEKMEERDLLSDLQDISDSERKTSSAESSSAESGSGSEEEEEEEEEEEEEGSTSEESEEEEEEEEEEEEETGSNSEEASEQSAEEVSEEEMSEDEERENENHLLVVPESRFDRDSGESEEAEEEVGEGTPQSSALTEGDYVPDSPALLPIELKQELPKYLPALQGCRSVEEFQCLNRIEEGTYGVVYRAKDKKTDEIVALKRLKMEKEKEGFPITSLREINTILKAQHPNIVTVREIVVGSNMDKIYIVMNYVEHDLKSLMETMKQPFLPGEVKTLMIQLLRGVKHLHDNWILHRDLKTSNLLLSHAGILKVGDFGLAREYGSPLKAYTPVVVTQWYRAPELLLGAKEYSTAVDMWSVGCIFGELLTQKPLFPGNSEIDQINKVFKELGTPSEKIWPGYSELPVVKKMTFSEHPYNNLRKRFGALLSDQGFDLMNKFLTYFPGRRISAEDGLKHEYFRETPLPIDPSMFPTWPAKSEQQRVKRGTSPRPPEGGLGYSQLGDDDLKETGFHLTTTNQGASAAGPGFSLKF

PAK1 = PAK1 (Homo sapiens (Human), UniProt Q13153); assay: KINOMEscan competitive binding assay; settings: 10 uM
Procedure: For the competitive binding assay, test compounds were screened at 10 μM against 70 diverse kinase targets for competitive binding using the KINOMEscan™ technology (Ambit Biosciences) (Karaman, et al. (2008) Nature biotechnology 26:127-132). 11-point Kd curves were determined for hits identified during the initial screen.

PRKD1 = PRKD1 (Homo sapiens (Human), UniProt Q15139); assay: KINOMEscan competitive binding assay; settings: 10 uM
PRKD1, sequence (Q15139 whole entry): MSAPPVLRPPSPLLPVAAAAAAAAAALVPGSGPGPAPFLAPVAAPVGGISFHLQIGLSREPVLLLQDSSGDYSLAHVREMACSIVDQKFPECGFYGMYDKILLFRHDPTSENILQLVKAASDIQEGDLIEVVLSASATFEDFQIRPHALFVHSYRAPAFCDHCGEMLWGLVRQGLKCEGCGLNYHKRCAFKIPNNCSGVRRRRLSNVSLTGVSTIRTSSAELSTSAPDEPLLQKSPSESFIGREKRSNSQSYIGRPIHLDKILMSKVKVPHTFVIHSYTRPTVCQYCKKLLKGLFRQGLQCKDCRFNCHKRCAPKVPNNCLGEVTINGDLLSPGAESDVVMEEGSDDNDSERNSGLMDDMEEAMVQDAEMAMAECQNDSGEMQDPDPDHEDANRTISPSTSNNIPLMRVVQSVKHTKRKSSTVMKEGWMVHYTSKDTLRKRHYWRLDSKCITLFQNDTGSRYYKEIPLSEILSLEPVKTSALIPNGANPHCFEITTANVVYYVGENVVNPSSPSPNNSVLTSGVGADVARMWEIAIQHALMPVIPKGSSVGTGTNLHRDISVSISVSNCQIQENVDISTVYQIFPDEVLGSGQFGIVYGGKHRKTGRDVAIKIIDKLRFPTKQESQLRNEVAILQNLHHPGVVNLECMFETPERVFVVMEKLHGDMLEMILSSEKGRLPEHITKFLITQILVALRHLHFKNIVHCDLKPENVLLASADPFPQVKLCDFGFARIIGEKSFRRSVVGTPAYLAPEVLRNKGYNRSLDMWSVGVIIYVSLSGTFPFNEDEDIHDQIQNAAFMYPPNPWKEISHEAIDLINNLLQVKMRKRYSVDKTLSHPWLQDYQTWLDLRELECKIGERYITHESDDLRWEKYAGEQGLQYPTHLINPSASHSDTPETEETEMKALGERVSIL

VEGFR2 = VEGFR2 (Homo sapiens (Human), UniProt P35968); assay: KINOMEscan competitive binding assay; settings: 10 uM
Procedure: In vitro kinase screen and competitive binding assay. […] For the competitive binding assay, test compounds were screened at 10 μM against 70 diverse kinase targets for competitive binding using the KINOMEscan™ technology (Ambit Biosciences) (Karaman, et al. (2008) Nature biotechnology 26:127-132). 11-point Kd curves were determined for hits identified during the initial screen.

A431 = assay: Tumor cell viability; assay type: cell-based; settings: Epithelial Carcinoma A431, HER1
Procedure: (§2) For XTT assays, cells were grown in 96-well plates overnight and all assays were conducted in growth medium will full serum and additives. Compounds were serially diluted in DMSO and then further diluted into the medium to give the appropriate concentration while minimizing precipitation associated with serial diluting in medium alone Inhibitors were added for 72 h and cell viability was quantified at 450 nm after the addition of 1 mg/ml XTT solution (Sigma-Aldrich) in phenol-red free DMEM medium containing […] (Sigma-Aldrich). Dose-response curves were plotted using GraphPad Prism software and EC50s were calculated using this program.

CT26 = assay: Tumor cell viability; assay type: cell-based; settings: Colon Carcinoma CT26
Procedure: as §2

M21L = assay: Tumor cell viability; assay type: cell-based; settings: Melanoma M21L
Procedure: as §2

M21 = assay: Tumor cell viability; assay type: cell-based; settings: Melanoma M21
Procedure: as §2

For `CSc1nc(N)cc(Oc2ccc(-c3nnc(Nc4cccc(C(F)(F)F)c4)[nH]3)cc2)n1` [Compound 6], the “% Control” value (ARK5) was 70%, the “% Control” value (AXL) was 87% and the “% Control” value (BMX) was 97%. For the same molecule, the “% Control” value (CDK2) was 87%, the “% Control” value (CDK3) was 91% and the “% Control” value (CDK9) was 100%. The “% Control” value (FLT4) was 100%, the “% Control” value (GSK3B) was 90% and the “% Control” value (IGF1R) was 100%. The “% Control” value (JNK1) was 98%, the “% Control” value (KIT(V559D, T670I)) was 56% and the “% Control” value (KIT(V559D, V654A)) was 15%. For the same molecule, the “% Control” value (LKB1) was 100%, the “% Control” value (PIK3CA) was 100% and the “% Control” value (RIOK3) was 100%. The “% Control” value (TIE1) was 76%, the “% Control” value (CDC2L1) was 70% and the “% Control” value (CDC2L2) was 83%. The “% Control” value (PAK1) was 100%, the “% Control” value (PRKD1) was 100% and the “% Control” value (VEGFR2) was 80%. For the same molecule, the EC50 (A431) was 430 nM, the EC50 (CT26) was 710 nM and the EC50 (M21L) was 420 nM. For the same molecule, the EC50 (M21) was 450 nM.
